The text below walks through data of patent publication US20210024985A1, “Devices and Methods Useful for Imaging Transient and Rare Mechanical Events in Cells” (Emory University, priority 2019, published 2021).

Like-named read-outs stand apart in the source and are kept apart here.

Data set [1] concerns MTFM tension probes opened by naïve OT-1 T cells. The data set can be described thus: Locking/unlocking of tension probes presenting antiCD3ε in live naïve OT-1 T cells. Type of data set: cell-based. As to conditions: 200 nM unlocking strand. As to the method: The mechanically opened probes were locked with 200 nM locking strand over 10 min. After rinsing away excess locking strand, the unlocking strand was added at a final concentration of 200 nM, and the tension signal for the same cells was measured as a function of time.
To test locking/unlocking the oligonucleotide complexes in live cells, naïve OT-1 T cells were allowed to adhere and spread on MTFM probe surfaces presenting antiCD3ε antibodies. Cells generated tension signal as the TCR engaged the antibody and transmitted forces to the probes. Subsequently, the Atto647N-tagged locking strand was added for 10 min, washed, and the same T cells were imaged, confirming binding. […] Significant co-localization between the Cy3B (hairpin opening) and the Atto647N (locking strand) signals was found, as evident from linescan analysis and the Pearson's correlation coefficient of 0.72±0.096 (n=20 cells). The excess locking strand was rinsed away before re-imaging. “Erasing” the stored cellular mechanical information was tested. This process was triggered by adding 200 nM unlocking strand to the sample for 2-3 min and confirmed by imaging the same group of T cells. The unlocking process was rapid and reached completion within 60 s. Control experiments using tension probes with a scrambled stem-loop confirmed the specificity of locking real-time tension. […]

For data set [2], the system named is MTFM hairpin tension probe (stem-loop DNA hairpin). The experiment in a line: Hybridization of locking strand to folded MTFM probe versus unstructured single stranded DNA on model surfaces. Type of data set: binding. As to the method:
Fluorescence measurements of in-situ hybridization kinetics between the immobilized MTFM probes and the locking oligonucleotides at 200 nM. Locking oligonucleotides were added to surfaces presenting the MTFM tension probes at room temperature and allowed to bind to the hairpin for >1 h. Hybridization was monitored by the increase in fluorescence due to hairpin opening.
The selectivity of lock strand binding to unfolded hairpins over folded ones was measured by using model surfaces that either presented a folded MTFM probe or an unstructured single stranded DNA sequence. The unstructured sequence included a complementary region to the 17mer, thus providing a model for the opened state of the MTFM hairpin probes.
Conversely, mechanical stretching of DNA with large values of tension is expected to hinder hybridization. This is because forming the B-form duplex becomes less energetically favorable. Indeed, when F≈40 pN for a 24mer, this created a barrier to hybridization. […] Given that TCR forces are below 19 pN, estimates of mechano-selectivity are justified here.
Based on these criteria, five different locking oligonucleotides were designed that ranged in length from 25mer to 13mer to screen (FIG. 7A). Gold nanoparticle MTFM tension probe surfaces were prepared (FIG. 9). […] The locking oligonucleotides were tested. The 17mer has the most desirable properties (FIG. 7C). To estimate mechano-selectivity, the differential binding of locking strand to MTFM probe at rest to that of an unstructured sequence (mimicking opened state of MTFM probe) were compared.

Data set [3] concerns TCR. The experiment in a line: TCR tension imaging of naïve OT-1 cells in real-time and locked state (mechanical sampling and scanning). Type of data set: cell-based. As to the method: Mechano-locking enhances TCR-pMHC tension signals by accumulating pulling events that are >4.7 pN. The degree of enhancement and dynamics were evaluated. OT-1 T cells were allowed to engage real-time tension probes and then incubated with unlabeled locking strand (200 nM). The unlabeled locking strand was beneficial here because it eliminated bleed-through from the Atto647N tag. Additionally, avoiding the rinsing steps accelerates the experiments and reduces perturbation of cells.
A time course for TCR-N4 pMHC tension signal accumulation for three cells upon addition of the locking strand was imaged. […] Tension occupancy, which is the fraction of the cell contact area showing tension signal, reached 91% in 10 min. The tension occupancy is an indication of the area that is mechanically scanned by the TCR with F >4.7 pN in search for antigen.
T cells mechanically sample their cognate and near cognate ligands over time. […]
The signal accumulation levels differed when cells were presented with antibody, cognate pMHC, and altered peptide ligands. To quantify these differences on a per cell basis, two parameters were defined: the mechanical sampling factor, which is the fold enhancement in integrated tension signal; and the mechanical scanning factor, which reflects the fold increase in tension occupancy (FIG. 3B). […]

In data set [4] the test system is TCR. As to conditions: independent of CD8, cited from earlier work.
Data set [5] deals with OT-1 T-cell receptor (TCR) on OT-1 CD8+ T cells. The data set can be described thus: cell-based or functional assay.

For “unlocking strand: strand (SEQ ID NO: 20) that triggers toehold-mediated strand displacement releasing the locking strand (DNA TAGGTAGGGTATAAAATGTTTTTTC; listed as DNA, chemistry not given here)”, the “time to completion of unlocking” value in data set [1] is given as not above 60 s.

Take “locking strand: 17mer locking oligonucleotide GAAAAAAACATTTATAC (SEQ ID NO: 6) that hybridizes to mechanically unfolded hairpin; 8 nt toehold at 3′ end for unlocking (listed as DNA, chemistry not fully specified)”: the “mechano-selectivity: differential binding to MTFM probe at rest vs unstructured sequence” value in data set [2] is “greater than two orders of magnitude”. Moreover, in data set [2] (200 nM, room temperature, >1 h), the “hybridization to the MTFM probes among locking oligonucleotides 13mer to 25mer” value was “optimal hybridization”. Besides, the “hybridization to the closed hairpin tension probe, incubation without saturation” value in data set [2] (closed hairpin tension probe) is listed as more than 8 h. Besides, the “difference in binding rates (lock binding selectivity between mechanically unfolded and folded probes)” value in data set [2] (pseudo first-order kinetics, one-phase association fit, unstructured sequence vs folded MTFM probe) was 487 fold. The “hybridization to the unstructured sequence, time to saturation” value in data set [2] (unstructured ssDNA with region complementary to the 17mer) is given as “saturated in seconds”.

Turning to “N4: antigenic pMHC, peptide SIINFEKL (SEQ ID NO: 22), OT-1 TCR antigen derived from chicken ovalbumin”, the “enhancement of the integrated tension signal per cell” value with TCR [3] (200 nM unlabeled locking strand, n=16 cells) was “approximately 189 fold”. Further, the tension occupancy with TCR [3] (in 10 min after locking strand, F >4.7 pN) was found to be 91%. Also, the average bond lifetime is 800 ms in the data set with TCR [4] (at 10 pN) and 100 ms in the data set with TCR [4] (at zero force).

For the molecule SIINFEKL (peptide-MHC, part only; not given: MHC molecule, part only) [antigenic N4 pMHC (peptide SIINFEKL, SEQ ID NO: 22)], in data set [5], the enhancement of the integrated N4 tension signal per cell after locking stood at 189 fold, the force transmitted (hairpin probe threshold) is more than 4.7 pN, the fraction of antigen mechanically scanned over initial contact area within 10 min migration (ICAM-1/pMHC N4 surface) was found to be 81% and the mechanical sampling factor is 165 fold. This molecule also came in with a tension occupancy in data set [5] of 91%.

SIIQFEKL (peptide-MHC, part only; not given: MHC molecule, part only) [pMHC Q4 (SIIXFEKL, SEQ ID NO: 23, X=Q)] displayed a mechanical sampling factor in data set [5] of 66 fold.

For the molecule SIIGFEKL (peptide-MHC, part only; not given: MHC molecule, part only) [mutant pMHC G4 (SIIGFEKL, SEQ ID NO: 24)], the mechanical sampling factor in data set [5] was found to be 10 fold.

Turning to SIIVFEKL (peptide-MHC, part only; not given: MHC molecule, part only) [pMHC V4 (SIIXFEKL, SEQ ID NO: 23, X=V)], the mechanical sampling factor in data set [5] worked out at 33 fold.
